Results: patent US20260132384A1, “METHOD FOR REPROGRAMMING HUMAN SOMATIC CELLS INTO INDUCED PLURIPOTENT STEM CELLS” (EXONEUGLIA BIOTECHNOLOGY (SUZHOU) CO., LTD., priority 2023, published 2026)

Tested on: peripheral blood mononuclear cells (PBMCs)
Test: Reprogramming of human peripheral blood cells into induced pluripotent stem cells; clones counted by alkaline phosphatase staining
Assay type: cell-based
Conditions: day 14, clones per 5.0×10^5 reprogrammed PBMCs, OCT4, SOX2, LIN28 episomal plasmids, inducers added to induction medium
Procedure: The inducing factors were introduced via electroporation of episomal plasmids in Treatment Groups 1 to 6. The groups differed only in the chemical inducer small molecules added to the pluripotent stem cell induction medium. The specific steps were as follows:
(2) Expansion of Peripheral Blood Cells: Freshly isolated peripheral blood cells (peripheral blood cells obtained with ethical approval were purchased from Shanghai HYCELLs Company) were seeded into a 6-well plate at a density of 5×10^6 cells/mL and cultured statically for 7 days at 37° C. in an incubator. The peripheral blood cell expansion medium used was StemPro™-34 medium supplemented with SCF 100 ng/ml, FLT-3 100 ng/ml, IL-3 20 ng/ml, IL-6 20 ng/ml, and TPO 100 ng/mL.
(3) Electroporation: Prior to electroporation, 500 μL of diluted basement membrane matrix (Matrigel) was added to a […] and placed in a CO2 incubator for coating. The expanded cells were collected and washed. After counting, the peripheral blood mononuclear cells (PBMCs) were placed in a 1.5 mL centrifuge tube at a density of 2×10^6 cells/mL. The tube was loaded into a centrifuge and centrifuged at 200 g for 5 minutes. After centrifugation, the supernatant was aspirated with a pipette and set aside for later use.
According to the Thermo Neon electroporation instrument protocols, buffer was added. The cell pellet was mixed with 5 μg of pCEP4-OCT4-IRES-SOX2 plasmid and 2 μg of pCEP4-Lin28 plasmid, and the mixture was loaded into the electroporation instrument for electroporation. Peripheral blood expansion medium was immediately added thereafter, and the cells were seeded in the coated 6-well plate at a density of 5×10^5 cells/mL and cultured statically for 48 h at 37° C. in a CO2 incubator.
(4) Induction: At 48 h post-electroporation, 1 mL of pluripotent stem cell induction medium was directly added to the original wells, and the culture was continued statically for 48 h at 37° C. in a CO2 incubator; On day 4 post-electroporation, half of the old medium in the original wells was aspirated and discarded, 1 mL of fresh pluripotent stem cell induction medium was then added, and the culture was continued statically for 48 h at 37° C. in a CO2 incubator; On day 6 post-electroporation, all the old medium in the original wells was aspirated and discarded, 1 mL of fresh pluripotent stem cell induction medium was added, and the culture was continued statically for 48 h at 37° C. in a CO2 incubator; On day 8 post-electroporation, all the old medium in the original wells was aspirated and discarded, 1 mL of fresh pluripotent stem cell induction medium was added, and the culture was continued statically for 48 h at 37° C. in a CO2 incubator; On day 10 post-electroporation, all the old medium in the original wells was aspirated and discarded, 1 mL of fresh mTeSR1 medium was added, and the culture was continued statically at 37° C. in a CO2 incubator; The mTeSR1 medium was changed daily until the induced pluripotent stem cells were fully mature, approximately on day 14 or 15 post-electroporation. Clones were then picked for expansion.
The pluripotent stem cell induction medium for Treatment Group 1 was mTeSR1 medium supplemented with 3 μM chir99021, 100 ng/ml FGF2, 250 μM NaB, 2 μM SB203580, 1 μM peficitinib, 1 μM FPFT-2216, 0.1 μM VTP50469, 2% (v/v) B27, and 1% (v/v)N-2.
The pluripotent stem cell induction medium for Treatment Group 2 was mTeSR1 medium supplemented with 3 μM chir99021, 100 ng/ml FGF2, 250 μM NaB. 1 μM peficitinib, 2% (v/v) B27, and 1% (v/v)N-2.
The pluripotent stem cell induction medium for Treatment Group 3 was mTeSR1 medium supplemented with 3 μM chir99021, 100 ng/ml FGF2, 250 μM NaB, 2 μM Tofacitinib, 2% (v/v) B27, and 1% (v/v)N-2.
The pluripotent stem cell induction medium for Treatment Group 4 was mTeSR1 medium supplemented with 3 μM chir99021, 100 ng/ml FGF2, 250 μM NaB, 2 μM SB203580, 2% (v/v) B27, and 1% (v/v)N-2. […]

## C[C@@H]1CCN(C(=O)CC#N)C[C@@H]1N(C)c1ncnc2[nH]ccc12 [Tofacitinib]
  Average Number of Pluripotent Stem Cell Clone/Well, Experiment 1: 20 Clone/Well
  Average Number of Pluripotent Stem Cell Clone/Well, Experiment 2: 16 Clone/Well
  Average Number of Pluripotent Stem Cell Clone/Well, Experiment 3: 22 Clone/Well

## NC(=O)c1cnc2[nH]ccc2c1N[C@@H]1[C@@H]2CC3C[C@H]1C[C@@](O)(C3)C2 [Peficitinib]
  Average Number of Pluripotent Stem Cell Clone/Well, Experiment 1: 43 Clone/Well
  Average Number of Pluripotent Stem Cell Clone/Well, Experiment 2: 52 Clone/Well
  Average Number of Pluripotent Stem Cell Clone/Well, Experiment 3: 47 Clone/Well

## C[S+]([O-])c1ccc(-c2nc(-c3ccncc3)c(-c3ccc(F)cc3)[nH]2)cc1 (stereo not drawn) [SB203580]
  Average Number of Pluripotent Stem Cell Clone/Well, Experiment 1: 51 Clone/Well
  Average Number of Pluripotent Stem Cell Clone/Well, Experiment 2: 56 Clone/Well
  Average Number of Pluripotent Stem Cell Clone/Well, Experiment 3: 48 Clone/Well
